This experiment has as its system BphK-KKS. As to the kind of experiment: absorbance at […] nm, non-linear regression. In kind it is biochemical, Acidovorax sp. KKS102. The settings on record: GSH held constant, CDNB varied 0.3-2.1 mM, 50 mM sodium phosphate pH 6.5; read-out: CDNB / K m.

For the compound `O=[N+]([O-])c1ccc(Cl)c([N+](=O)[O-])c1` [CDNB, 1-chloro-2,4-dinitrobenzene], the Km is 2580 ± 140 µM.

These data come from paper PMC6396153, “Dechlorination of polychlorobiphenyl degradation metabolites by a recombinant glutathione S‐transferase from Acidovorax sp. KKS102” (FEBS Open Bio, 2019).
